Measurements from patent EP3421483A1, “NOVEL STEROIDAL 17-BETA HETEROARYL COMPOUNDS AS INHIBITORS OF AKR1C3” (Bayer Pharma Aktiengesellschaft, priority 2017, dated 2019).
“And” between values parts separate entries of the source, which are not always exact repeats. Equal entries are not always repeated. Where two headings read alike, the source gives them in different places.

Biological target: T1, recombinant human AKR1C3 (aldo-keto reductase family 1 member C3) (Homo sapiens, UniProt P42330)
T1 construct: GST (cleaved yes); made in house; host or cells: E. coli
T1 sequence (P42330 1-323): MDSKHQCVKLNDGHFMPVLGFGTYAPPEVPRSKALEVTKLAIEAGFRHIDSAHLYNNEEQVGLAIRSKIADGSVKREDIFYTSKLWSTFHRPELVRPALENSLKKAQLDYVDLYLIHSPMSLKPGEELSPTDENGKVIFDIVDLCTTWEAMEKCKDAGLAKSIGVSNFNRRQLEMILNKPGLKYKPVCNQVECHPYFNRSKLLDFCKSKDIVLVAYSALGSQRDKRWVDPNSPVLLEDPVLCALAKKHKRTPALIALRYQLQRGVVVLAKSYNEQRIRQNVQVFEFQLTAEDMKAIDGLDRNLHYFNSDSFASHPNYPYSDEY
Assay: AKR1C3 enzyme inhibition assay (fluorescence; NADPH-dependent reduction of coumberone to coumberol)
Format: biochemical
Procedure: The AKR1C3-inhibitory action of the substances of this invention was measured in the AKR1C3 assay described in the paragraphs which follow. Essentially, the enzyme activity is measured by quantifying the coumberol formed from coumberone ([…]., and […]. AM. CHEM. SOC. 130, 14123-14128 (2008) […]., Bauman, D.R., Penning, T.M., and […]., Proc. Natl. Acad. Sci. USA 103, 13304 - 13309 (2006)). In this assay, the increase in the highly fluorescent coumberol can be determined by NADPH (nicotinamide adenine dinucleotide phosphate)-dependent reduction of the nonfluorescent coumberone by AKR1C3. […] NM_003739). This was expressed as the GST (glutathione S-transferase) fusion protein in E. coli and purified by means of glutathione-Sepharose affinity chromatography. The GST was removed by thrombin digestion with subsequent size exclusion chromatography (Dufort, I., Rheault, P., Huang, XF., Soucy, P., and Luu-The, V., Endocrinology 140, 568-574 (1999)). […] The concentration of the AKR1C3 was matched to the respective activity of the enzyme preparation and set such that the assay worked within the linear range. Typical concentrations were in the region of 1 nM. The reaction was stopped by adding 5 μl of a stop solution consisting of the inhibitor EM-1404 [F. Labrie et al. US Patent 6,541,463, 2003] (2 μM → final concentration in assay volume […] is 1 μM). Subsequently, the fluorescence of coumberol was measured at 520 nm (excitation at 380 nm) with a suitable measuring instrument (Pherastar from BMG Labtechnologies). […] As described, the pharmacological substances claimed were tested for their inhibitory effect on the AKR1C3 enzyme (see Table 3). […] Table 3: Inhibition of AKR1C3 by the inventive compounds (for some of the compounds, the values for two experimental determinations are reported)

[1] = 10 µM NADPH, 0.3 µM coumberone, 15 min preincubation, 90 min at 22°C, pH 7, 4-parameter fit, for some compounds two experimental determinations are given, read-out: AKR1C3 enzyme inhibition IC50

| SMILES | IC50 [1] | other results |
| --- | --- | --- |
| CN(CCC(=O)O)C(=O)c1ccc2c(c1)CC[C@@H]1[C@@H]2CC[C@]2(C)[C@@H](c3cncc(C(F)(F)F)c3)CC[C@@H]12 [Example 7, N-methyl-N-{[(17beta)-17-[5-(trifluoromethyl)pyridin-3-yl]estra-1,3,5(10)-trien-3-yl]carbonyl}-beta-alanine] | 35 nM and 44.1 nM | – |
| CN(CCC(=O)O)C(=O)c1ccc2c(c1)CC[C@H]1[C@@H]3[C@H](O)C[C@H](c4cncc(F)c4)[C@@]3(C)CC[C@H]21 [Example 11, N-{[(15beta,17beta)-17-(5-fluoropyridin-3-yl)-15-hydroxyestra-1,3,5(10)-trien-3-yl]carbonyl}-N-methyl-beta-alanine] | 22.4 nM | – |
| CN(CC(=O)O)C(=O)c1ccc2c(c1)CC[C@@H]1[C@@H]2CC[C@]2(C)[C@@H](c3cncc(C(F)(F)F)c3)CC[C@@H]12 [Example 8, N-methyl-N-[[(17beta)-17-[5-(trifluoromethyl)pyridin-3-yl]estra-1,3,5(10)-trien-3-yl]carbonyl}glycine] | 48.5 nM and 76.2 nM | – |
| CN(CCC(=O)O)C(=O)c1ccc2c(c1)CC[C@@H]1[C@@H]2CC[C@]2(C)[C@@H](c3cncnc3)CC[C@@H]12 [Example 10, N-methyl-N-{[(17beta)-17-(pyrimidin-5-yl)estra-1,3,5(10)-trien-3-yl]carbonyl}-beta-alanine] | 271 nM and 282 nM | – |
| CN(CCC(=O)O)C(=O)c1ccc2c(c1)CC[C@@H]1[C@@H]2CC[C@]2(C)[C@@H](c3cncc(F)c3)CC[C@@H]12 [Example 1, N-{[(17beta)-17-(5-fluoropyridin-3-yl)estra-1,3,5(10)-trien-3-yl]carbonyl}-N-methyl-beta-alanine] | 19.2 nM and 23.7 nM | – |
| C[C@]12CC[C@@H]3c4ccc(C(=O)NCC(=O)O)cc4CC[C@H]3[C@@H]1CC[C@@H]2c1cncc(F)c1 [Example 2, N-[[(17beta)-17-(5-fluoropyridin-3-yl)estra-1,3,5(10)-trien-3-yl]carbonyl}glycine] | 26.4 nM and 28.9 nM | – |
| C[C@]12CC[C@@H]3c4ccc(C(=O)NCCC(=O)O)cc4CC[C@H]3[C@@H]1CC[C@@H]2c1cncc(F)c1 [Example 3, N-{[(17beta)-17-(5-fluoropyridin-3-yl)estra-1,3,5(10)-trien-3-yl]carbonyl}-beta-alanine] | 5.47 nM and 9.35 nM | – |
| CN(CCC(=O)O)C(=O)c1ccc2c(c1)CC[C@H]1[C@@H]3[C@@H](O)C[C@H](c4cncc(F)c4)[C@@]3(C)CC[C@H]21 [Example 12, N-{[(15alpha,17beta)-17-(5-fluoropyridin-3-yl)-15-hydroxyestra-1,3,5(10)-trien-3-yl]carbonyl}-N-methyl-beta-alanine] | 188 nM | – |
| C[C@]12CC[C@@H]3c4ccc(C(=O)NCCC(=O)O)cc4CC[C@H]3[C@@H]1CC[C@@H]2c1cncc(C(F)(F)F)c1 [Example 9, N-{[(17beta)-17-[5-(trifluoromethyl)pyridin-3-yl]estra-1,3,5(10)-trien-3-yl]carbonyl}-beta-alanine] | 16.9 nM and 26 nM | – |
| CC(C)(CNC(=O)c1ccc2c(c1)CC[C@@H]1[C@@H]2CC[C@]2(C)[C@@H](c3cncc(F)c3)CC[C@@H]12)C(=O)O [Example 5, 3-([[(17beta)-17-(5-fluoropyridin-3-yl)estra-1,3,5(10)-trien-3-yl]carbonyl}amino)-2,2-dimethylpropanoic acid] | – | IC50: 13.8 nM and 13.1 nM |
| COc1cncc([C@H]2CC[C@H]3[C@@H]4CCc5cc(C(=O)N(C)CCC(=O)O)ccc5[C@H]4CC[C@]23C)c1 [Example 6, N-{[(17beta)-17-(5-methoxypyridin-3-yl)estra-1,3,5(10)-trien-3-yl]carbonyl}-N-methyl-beta-alanine] | 67.6 nM and 82.1 nM | – |
| C[C@]12CC[C@@H]3c4ccc(C(=O)NCCCC(=O)O)cc4CC[C@H]3[C@@H]1CC[C@@H]2c1cncc(F)c1 [Example 4, 4-({[(17beta)-17-(5-fluoropyridin-3-yl)estra-1,3,5(10)-trien-3-yl]carbonyl}amino)butanoic acid] | – | IC50 (read-out: AKR1C3 enzyme inhibition IC50, 10 µM NADPH, 0.3 µM coumberone, 15 min preincubation, 90 min at 22°C, pH 7, 4-parameter fit, for some compounds two experimental determinations are given): 7.79 nM and 6.76 nM |
